According to PubChem BioAssay (NCI):
Where “and” joins values, the source holds several entries; their conditions need not be identical. Equal entries are not always repeated.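 Briefly, cells in 96-well plates were exposed to five compound concentrations for 48 h, and endpoints were estimated by linear interpolation. GI50 marks 50% less growth. TGI is the concentration that stops growth completely.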 Where a SMILES comes first, the peptide text is derived from it. [ ]: non-standard residue; d: D form. Ac5c = NC1(C(=O)O)CCCC1

Tests used:
Experiment in all cases: NCI anticancer screen, dose series, 48 h
K-562 leukemia = system: K-562 leukemia
SK-MEL-5 melanoma = system: SK-MEL-5 melanoma
MDA-MB-231 breast = system: MDA-MB-231 breast
MOLT-4 leukemia = system: MOLT-4 leukemia
M14 melanoma = system: M14 melanoma
COLO 205 colon = system: COLO 205 colon
LOX IMVI melanoma = system: LOX IMVI melanoma
SW-620 colon = system: SW-620 colon
786-0 renal = system: 786-0 renal
EKVX NSCLC = system: EKVX NSCLC

Structure (SMILES)	GI50 (K-562 leukemia)	TGI (K-562 leukemia)	GI50 (SK-MEL-5 melanoma)	TGI (SK-MEL-5 melanoma)	GI50 (MDA-MB-231 breast)	TGI (MDA-MB-231 breast)	GI50 (MOLT-4 leukemia)	TGI (MOLT-4 leukemia)	GI50 (M14 melanoma)	TGI (M14 melanoma)	GI50 (COLO 205 colon)	TGI (COLO 205 colon)	GI50 (LOX IMVI melanoma)	TGI (LOX IMVI melanoma)	GI50 (SW-620 colon)	TGI (SW-620 colon)	GI50 (786-0 renal)	TGI (786-0 renal)	GI50 (EKVX NSCLC)	TGI (EKVX NSCLC)
O=c1c2cc(Cl)ccc2oc2ccc(OCCCCCN3CCCCC3)cc12	1.76 µM	7.55 µM	0.892 µM	1.91 µM	3.15 µM	9.77 µM	3.16 µM	10.7 µM	1.17 µM	2.84 µM	1 µM	2.29 µM	0.967 µM	2.12 µM	1.55 µM	5.09 µM	5.91 µM	12.5 µM	6.25 µM	13.2 µM
CO[C@@H]1/C=C\C=C(/C)C(=O)NC2=CC(=O)C(NCCN(C)C)=C(C[C@@H](C)C[C@@H](OC)[C@@H](O)[C@H](C)/C=C(\C)[C@H]1OC(N)=O)C2=O	0.0158 µM	3.22 µM and 13.6 µM	< 0.01 µM and 0.0238 µM	3.12 µM and 1.12 µM	0.019 µM and 0.018 µM	7.26 µM and 2.24 µM	0.0444 µM	1.02 µM and 8.39 µM	0.0125 µM	6.51 µM and 4.99 µM	–	0.171 µM	< 0.013 µM	0.379 µM	< 0.01 µM and 0.0487 µM	20.6 µM	0.0589 µM	15 µM and 26.9 µM	0.641 µM and 0.145 µM	11.1 µM and 7.59 µM
CC12OC(c3ccccc3)=CC(c3ccc(Cl)cc3)=C1C(c1ccccc1)=CC2=O (configuration not stated)	28.9 µM	> 100 µM	42.1 µM	> 100 µM	67.2 µM	> 100 µM	20.6 µM	75.6 µM	28.2 µM	83 µM	64.9 µM	> 100 µM	46 µM	> 100 µM	90.4 µM	> 100 µM	94.7 µM	> 100 µM	> 100 µM	> 100 µM
COC(=O)CCc1cc(OC)c2c(c1)C(C(=O)OC)C(c1ccc(OC)c(OC)c1)O2 (configuration not stated)	–	> 100 µM	> 100 µM and 12 µM	> 100 µM	> 100 µM and 21.4 µM	> 100 µM	65.1 µM and 7.2 µM	> 100 µM	> 100 µM and 11.6 µM	> 100 µM	> 100 µM and 21.6 µM	> 100 µM	> 100 µM and 12.1 µM	> 100 µM	> 100 µM and 17.3 µM	> 100 µM	> 100 µM and 40.9 µM	> 100 µM	–	> 100 µM
CSc1ccc(C2=NN(C(=O)c3ccc(F)cc3)C(c3ccc(F)cc3)C2)cc1 (configuration not stated)	3.91 µM	16.6 µM	18.5 µM	33.3 µM	14 µM	32.3 µM	12.3 µM	38.2 µM	9.43 µM	22.1 µM	12.3 µM	25.6 µM	3.62 µM	12.3 µM	14.2 µM	34.2 µM	15.5 µM	30.7 µM	18.9 µM	37 µM
O=[N+]([O-])c1cc(Cl)c(Cl)c([N+](=O)[O-])c1Cl	0.353 µM	> 100 µM	1.73 µM	3.47 µM	1.81 µM	3.79 µM	0.436 µM	5.42 µM	0.642 µM	2.23 µM	1.55 µM	2.91 µM	0.299 µM	1.11 µM	0.763 µM	3.36 µM	1.88 µM	3.43 µM	2.23 µM	5.32 µM
NC1(C(=O)NC2(C(=O)O)CCCC2)CCCC1 (H-[Ac5c]-[Ac5c]-OH)	–	> 100 µM	–	> 100 µM	–	> 100 µM	–	> 100 µM	–	> 100 µM	–	> 100 µM	–	> 100 µM	–	> 100 µM	–	> 100 µM	–	> 100 µM
Cc1nc2sc(C(=O)Nc3cccc(Cl)c3C)c(N)c2cc1C(=O)/C=C/c1ccccc1	0.251 µM	> 50 µM	0.572 µM	1.43 µM	0.786 µM	2.26 µM	0.76 µM	> 50 µM	0.239 µM	1.35 µM	0.979 µM	2.39 µM	0.188 µM	0.711 µM	0.206 µM	1.32 µM	0.232 µM	0.907 µM	1.12 µM	5.69 µM
O=C(/C=C/c1ccc(F)cc1)c1ccc(Cl)cc1Cl	33.9 µM	> 100 µM	50.8 µM	> 100 µM	> 100 µM	> 100 µM	26.2 µM	63.9 µM	> 100 µM	> 100 µM	44.2 µM	> 100 µM	41.1 µM	> 100 µM	29.7 µM	79.2 µM	45.2 µM	> 100 µM	89.9 µM	> 100 µM
CC1=C2[C@@H](CC1)[C@]1(C)O[C@@](C3CCCCC3)(C[C@H]1OC(=O)CO)[C@H]2OC(=O)/C=C/c1ccccc1	7.14 µM	32.1 µM	12 µM	24.9 µM	18.3 µM	41.5 µM	5.82 µM	17.4 µM	8.9 µM	26.8 µM	8.06 µM	24.3 µM	5.31 µM	11.2 µM	9.26 µM	25.1 µM	1.48 µM	17.6 µM	5.83 µM	19.5 µM
COc1cc(/C=C/C(=O)CC(=O)/C=C/c2cc(OC)c(OC)c(OC)c2)cc(OC)c1OC	2.82 µM	> 100 µM	4.51 µM	46 µM	3.13 µM	9.12 µM	2.98 µM	> 100 µM	3.9 µM	40 µM	6.93 µM	> 100 µM	2.19 µM	9.14 µM	2.56 µM	11.3 µM	4.05 µM	17.6 µM	3.59 µM	40.9 µM
O=C(O[C@H]1CN[C@H](C#Cc2cc3ncnc(Nc4ccc5c(ccn5Cc5cc(F)ccc5F)c4)c3s2)C1)N1CCOCC1	6.49 µM	> 25 µM	2.95 µM	6.13 µM	1.97 µM	9.81 µM	6.1 µM	> 25 µM	6.26 µM	17.1 µM	3.16 µM	6.86 µM	3.5 µM	9.28 µM	5.16 µM	15.1 µM	4.55 µM	12.6 µM	0.119 µM	2.04 µM
O=c1c2c(nc3n1CCS3)[nH]c1ccccc12	> 100 µM	> 100 µM	2.75 µM	> 100 µM	33.4 µM	> 100 µM	> 100 µM	> 100 µM	> 100 µM	> 100 µM	> 100 µM	> 100 µM	59.5 µM	> 100 µM	> 100 µM	> 100 µM	> 100 µM	> 100 µM	> 100 µM	> 100 µM
COc1ccc(/C=N\NC(=O)CN2CCN(c3cc4c(cc3F)c(=O)c(C(=O)N/N=C/c3ccc(OC)c(OC)c3)cn4C3CC3)CC2)cc1OC	3.81 µM	> 100 µM	3.69 µM	15.8 µM	2.33 µM	6.31 µM	3.56 µM	> 100 µM	3.53 µM	11.9 µM	3.38 µM	14.8 µM	3.22 µM	11.3 µM	3.33 µM	16.8 µM	4.83 µM	22.6 µM	6.06 µM	> 100 µM
CCN(CC)CCC(=O)NC1c2ccc(Cl)cc2Oc2c(C)cccc21 (configuration not stated)	–	40.7 µM	–	26.1 µM	–	40.8 µM	–	38.7 µM	–	31.3 µM	–	40.1 µM	–	29.1 µM	–	33.2 µM	–	25.2 µM	–	36.9 µM
